Calls of active or inactive are those of the source. The rule behind the calls is not given here.

The test system of data set [1] is THP-1. The data set is described as follows: Anti-inflammatory activity in human THP-1 cells assessed as inhibition of LPS-induced TNF-alpha expression preincubated with compound for 2 hrs followed by LPS stimulation and measured after 6 hrs by RT-qPCR analysis. The class given is functional, cell-based. The note with it: dose 2.5-20 µM, time 8.0 hrs. In general terms: In qPCR the cycle at which signal appears reflects the starting amount.

Data set [2] concerns the target T1, ATPase family AAA domain-containing protein 2 (Homo sapiens) (UniProt Q6PL18).
T1 sequence (whole entry): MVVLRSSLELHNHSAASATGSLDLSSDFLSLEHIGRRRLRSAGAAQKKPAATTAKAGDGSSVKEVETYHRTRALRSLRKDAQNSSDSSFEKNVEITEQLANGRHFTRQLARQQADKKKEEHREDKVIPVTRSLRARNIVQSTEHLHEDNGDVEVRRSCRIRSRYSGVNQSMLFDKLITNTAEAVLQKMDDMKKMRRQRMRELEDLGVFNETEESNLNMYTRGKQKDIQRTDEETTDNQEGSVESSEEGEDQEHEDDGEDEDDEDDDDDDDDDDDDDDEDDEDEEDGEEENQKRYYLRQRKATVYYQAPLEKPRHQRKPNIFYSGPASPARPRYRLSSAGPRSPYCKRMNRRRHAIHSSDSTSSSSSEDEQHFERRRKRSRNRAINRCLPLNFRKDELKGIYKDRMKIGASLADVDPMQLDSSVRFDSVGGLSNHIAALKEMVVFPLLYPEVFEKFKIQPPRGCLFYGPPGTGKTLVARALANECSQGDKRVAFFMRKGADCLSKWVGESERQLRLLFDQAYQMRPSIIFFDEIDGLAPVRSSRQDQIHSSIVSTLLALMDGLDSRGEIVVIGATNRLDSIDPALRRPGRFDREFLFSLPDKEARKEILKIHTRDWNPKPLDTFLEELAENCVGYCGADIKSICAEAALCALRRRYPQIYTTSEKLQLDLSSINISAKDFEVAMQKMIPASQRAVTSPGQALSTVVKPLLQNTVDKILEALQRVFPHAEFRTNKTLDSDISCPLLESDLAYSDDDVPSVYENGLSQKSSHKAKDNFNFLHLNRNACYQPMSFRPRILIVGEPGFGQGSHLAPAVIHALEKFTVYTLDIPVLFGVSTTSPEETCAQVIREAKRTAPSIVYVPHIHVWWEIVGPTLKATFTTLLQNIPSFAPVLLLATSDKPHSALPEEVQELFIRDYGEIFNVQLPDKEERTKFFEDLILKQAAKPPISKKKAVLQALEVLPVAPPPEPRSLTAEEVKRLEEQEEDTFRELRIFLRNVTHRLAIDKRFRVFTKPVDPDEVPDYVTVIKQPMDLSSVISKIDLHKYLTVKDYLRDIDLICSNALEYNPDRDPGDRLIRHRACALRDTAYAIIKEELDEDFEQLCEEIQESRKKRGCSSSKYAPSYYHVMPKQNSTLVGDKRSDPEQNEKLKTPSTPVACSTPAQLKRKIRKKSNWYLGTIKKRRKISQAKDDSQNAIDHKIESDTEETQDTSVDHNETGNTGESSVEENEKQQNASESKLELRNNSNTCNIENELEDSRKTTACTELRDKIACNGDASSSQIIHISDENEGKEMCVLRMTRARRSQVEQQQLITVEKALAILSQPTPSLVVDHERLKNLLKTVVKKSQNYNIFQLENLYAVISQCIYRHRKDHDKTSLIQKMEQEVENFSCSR
Put plainly: Inhibition of ATAD2A (unknown origin) at 1 uM incubated for 2 hrs by TR-FRET assay relative to control. For orientation: Time-resolved FRET reads energy transfer from a long-lived donor to a nearby acceptor.

For data set [3], the system named is RAW264.7. Put plainly: Anti-inflammatory activity in mouse RAW264.7 cells assessed as inhibition of LPS-induced IL-6 expression preincubated with compound for 2 hrs followed by LPS stimulation and measured after 6 hrs by RT-qPCR analysis. The class given is functional, cell-based. To be noted: dose 2.5-20 µM, time 8.0 hrs.
Data set [4] in a line: Toxicity in C57BL/6 mouse effect on heart at 100 mg/kg, po measured after 24 hrs. The class given is organism-based. The note with it: in vivo.
A short description of data set [5]: Toxicity in C57BL/6 mouse effect on lung at 100 mg/kg, po measured after 24 hrs. It counts as organism-based. The note with it: in vivo.
Data set [6] has as its system RAW264.7. Put plainly: Anti-inflammatory activity in mouse RAW264.7 cells assessed as inhibition of LPS-induced TNF-alpha expression preincubated with compound for 2 hrs followed by LPS stimulation and measured after 6 hrs by RT-qPCR analysis. It counts as functional, cell-based. To be noted: dose 2.5-20 µM, time 8.0 hrs.
Data set [7] concerns RAW264.7. The data set is described as follows: Anti-inflammatory activity in mouse RAW264.7 cells assessed as inhibition of LPS-induced TNF-alpha level preincubated with compound for 2 hrs followed by LPS stimulation and measured after 22 hrs by ELISA method. It counts as functional, cell-based. To be noted: dose 2.5-20 µM, time 24.0 hrs. Background: An ELISA detects its analyte on a solid surface through an enzyme-linked reagent.

Data set [8] concerns the target T2, Bromodomain-containing protein 9 (Homo sapiens) (UniProt Q9H8M2).
T2 sequence (whole entry): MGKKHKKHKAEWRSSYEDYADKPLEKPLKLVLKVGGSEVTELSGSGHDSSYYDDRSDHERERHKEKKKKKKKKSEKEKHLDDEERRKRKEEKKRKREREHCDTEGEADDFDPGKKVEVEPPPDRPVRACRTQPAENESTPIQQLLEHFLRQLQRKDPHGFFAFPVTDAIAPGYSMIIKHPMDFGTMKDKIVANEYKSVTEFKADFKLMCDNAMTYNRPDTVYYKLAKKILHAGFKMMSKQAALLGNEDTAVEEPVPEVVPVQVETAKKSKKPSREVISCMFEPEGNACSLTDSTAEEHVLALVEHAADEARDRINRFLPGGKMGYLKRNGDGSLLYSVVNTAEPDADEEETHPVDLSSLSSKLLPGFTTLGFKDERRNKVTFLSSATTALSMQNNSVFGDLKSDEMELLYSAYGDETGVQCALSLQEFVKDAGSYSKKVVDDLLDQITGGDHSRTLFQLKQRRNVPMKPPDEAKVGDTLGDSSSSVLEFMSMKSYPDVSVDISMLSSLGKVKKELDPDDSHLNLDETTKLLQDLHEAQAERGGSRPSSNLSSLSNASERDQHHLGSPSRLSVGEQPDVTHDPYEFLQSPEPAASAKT
Put plainly: Inhibition of BRD9 (unknown origin) at 1 uM incubated for 2 hrs by TR-FRET assay relative to control.

The subject of data set [9] is Mus musculus. Put plainly: Antiinflammatory activity against C57BL/6 mouse acute inflammation model assessed as inhibition of LPS-induced TNF-alpha level at 50 to 100 mg/kg, po pre-administered for 2 hrs followed by LPS stimulation for 6 hrs by ELISA method. The class given is functional, organism-based. To be noted: dose 50-100 mg/kg, time 8.0 hrs.
Data set [10] concerns Mus musculus. The data set is described as follows: Antiinflammatory activity against LPS-induced C57BL/6 mouse acute inflammation model assessed as improvement of distorted hepatic lobular structure in liver at 50 to 100 mg/kg, po pre-administered for 2 hrs followed by LPS stimulation for 6 hrs. It counts as functional, organism-based. The note with it: dose 50-100 mg/kg, time 8.0 hrs.

In data set [11] the test system is THP-1. Put plainly: Anti-inflammatory activity in human THP-1 cells assessed as inhibition of LPS-induced IL-6 expression preincubated with compound for 2 hrs followed by LPS stimulation and measured after 6 hrs by RT-qPCR analysis. It counts as functional, cell-based. The note with it: dose 2.5-20 µM, time 8.0 hrs.
The target in data set [12] is Bromodomain testis-specific protein (Homo sapiens) (UniProt Q58F21). The data set is described as follows: Inhibition of BRDT BD2 (unknown origin) at 1 uM incubated for 2 hrs by TR-FRET assay relative to control.

Regarding `COc1ccc(/C=C/c2nc3cc(OC)cc(OC)c3c(=O)[nH]2)cc1`, the Activity result in the data set with THP-1 [1] was “Dose-dependent-effect”; with RAW264.7 [3] it was “Dose-dependent-effect”; in [4], “Non-toxic”; in data set [5] it was “Non-toxic”; with RAW264.7 [6], “Dose-dependent-effect”; with RAW264.7 [7], “Dose-dependent-effect”. In addition, in the data set on THP-1 [11], the Activity entry was “Dose-dependent-effect”. Also, the inhibition in data set [2] was determined as 5%; in data set [8] it was 12%; in data set [12], 7%. In addition, the outcome in the data set on Mus musculus [9] and in the data set on Mus musculus [10] was Active.

The term inhibition denotes how much of the control response was suppressed. High values mean a response far below the control, low ones a response near the control.

The values above are taken from ChEMBL document CHEMBL6121006, “Marine natural product-inspired discovery of novel BRD4 inhibitors with anti-inflammatory activity” (Eur J Med Chem, 2025).
